Experimental data as given in ChEMBL document CHEMBL5634083, “Targeting polyketide synthase 13 for the treatment of tuberculosis” (Eur J Med Chem, 2023).
Values after ≈ are worked out from the molar mass of the structure shown.

Columns and labels:
Format in all cases: functional
[1] = tested on: Mycobacterium tuberculosis; assay: Antibacterial activity against fluoroquinolone-resistant Mycobacterium tuberculosis H37Rv assessed as reduction in bacterial growth measured after 16 to 18 hrs by serial dilution method; details: time 16-18 hrs
[2] = tested on: Mycobacterium tuberculosis; assay: Antitubercular activity against multi-drug resistant Mycobacterium tuberculosis assessed as reduction in microbial growth measured after 3 weeks by resazurin microplate reader assay; details: 504 h
[3] = tested on: Mycobacterium tuberculosis; assay: Antimycobacterial activity against multi-drug resistant Mycobacterium tuberculosis

Compound: CC(=O)c1c(C)n(-c2ccc(N(C)C)cc2)c2ccc(O)c(CN3CCCC3)c12
- MIC90 [1]: 0.244 µM (≈ 0.0955 µg/mL)

Compound: O=C(c1ccccc1)c1cc(Cl)ccc1OCc1nc(-c2ccc(C(F)(F)F)cc2)no1
- MIC [2]: 16 µg/mL

Compound: CCOC(=O)c1c(NC(=O)c2c(F)c(F)c(F)c(F)c2F)sc2c1CCN(CC)C2
- MIC [3]: 0.2 µM (≈ 0.0897 µg/mL)
